Experimental data reported in patent US12257225B2, “Polyoxometalate complexes and pharmaceutical compositions” (Emory University, priority 2016, dated 2025).
Several values for one entry are separate records, joined by “and”; a condition that tells them apart may be missing. Equal entries are not always repeated. Entries after “also recorded” stand apart in the source; their conditions may differ.

Tests used:
KB-3-1 cancer cell line = assay: Cytotoxicity, cell counting kit-8, KB-3-1; assay type: cell-based, human; settings: KB-3-1 cells, 72 h
Procedure: (§1) A variety of cancer or normal cells were grown in 96-well plates and treated with VPOA-6 at 0-20 μM for 72 h. Cytotoxicity was measured using cell counting kit-8.
The effective catalytic oxidation of cellular antioxidants by VPOA-6, led to an assessment of the viability of both cancer and normal cell lines in the presence of VPOA-6. Four VPOA analogues (FIG. 1B) for selectivity of VPOA-6 in killing cancer cells by cytotoxicity towards the fast-growing KB-3-1 cancer cell line.
(§2) Cell lines used in this study are as follows.

[1] = tested on: normal proliferating cells; assay: Selective killing of cancer versus normal proliferating cells; assay type: cell-based; settings: for activity and selectivity, KB-3-1 versus normal cells: simple vanadium compounds
Procedure: as §1
The effect of VPOA-6 on the viability of a spectrum of cancer cells and normal proliferating cells were then evaluated. […] In particular, four major types of human cancer cell lines, A549 (lung), U87 (brain), SKOV-3 (ovarian), and KB-3-1 (cervical), are highly sensitive to VPOA-6 with IC50 values below 5 μM.

[2] = tested on: KB-8-5, multi-drug resistant cervical carcinoma cell; assay: Cytotoxicity, cell counting kit-8, KB-8-5; assay type: cell-based, human; settings: KB-8-5 cells, 72 h
Procedure: as §1
(§3) The high incidence of drug resistance is a major challenge in treatment of relapsed and refractory cancers. […] The resistance of tumor cells to platinum-based chemotherapeutics is known to be associated with increased GSH levels; whereas cancer cells with high GSH levels are frequently more sensitive to drugs that affect GSH43.
as §2

[3] = tested on: KB-CP.5, cisplatin-resistant cervical carcinoma cell; assay: Cytotoxicity, cell counting kit-8, KB-CP.5; assay type: cell-based, human
Procedure: as §1, §3, §2

[4] = tested on: D556, medulloblastoma cell; assay: Cytotoxicity, cell counting kit-8, D556; assay type: cell-based; settings: D556 cells, 72 h
Procedure: as §1, §2

[5] = tested on: NCI-H460, large cell lung carcinoma; assay: Cytotoxicity, cell counting kit-8, NCI-H460; assay type: cell-based, human; settings: NCI-H460 cells, 72 h
Procedure: as §1, §2

[6] = tested on: SKOV-3, ovarian carcinoma cell; assay: Cytotoxicity, cell counting kit-8, SKOV-3; assay type: cell-based, human; settings: SKOV-3 cells, 72 h
Procedure: as §1, §2

[7] = tested on: OVCAR-3, ovarian carcinoma; assay: Cytotoxicity, cell counting kit-8, OVCAR-3; assay type: cell-based, human; settings: OVCAR-3 cells, 72 h
Procedure: as §1, §2

[8] = tested on: human embryonic kidney HEK 293; assay type: cell-based
Procedure: as §1
One aspect of selectivity is the efficacy ratio of a therapeutic agent for normal cells versus cancer cells.
as §2

KB-3-1 cancer cells = assay: Apoptosis of KB-3-1 cancer cells; assay type: cell-based, human
Procedure: Apoptosis was measured after cancer cells were treated with the drug for 48 hr. […] Cancer cells were cultured with VPOA-6 (5 or 10 μM) with or without NAC (3 mM) for 48 hr before apoptosis measurement.

KB-CP.5 cancer cells = assay: Apoptosis of cisplatin-resistant KB-CP.5 cancer cells; assay type: cell-based, human
Procedure: Apoptosis was measured after cells treated with VPOA-6 at different concentrations for 48 hr. […] NAC rescues the VPOA-6-induced apoptosis in KB-CP.5 cancer cells. Cancer cells were cultured with VPOA-6 (5 or 10 μM) with or without ROS scavenging agent NAC (3 mM) for 48 hr before apoptosis measurement.

KB-3-1 cells = assay: Total cellular ROS by flow cytometry, KB-3-1; assay type: cell-based, human
Source text: Transition-metal-based polyoxoanions sometimes have the ability to catalyze a range of oxidation reactions and to generate the free radicals under mild conditions. Although it is not intended that embodiments of this disclosure be limited by any particular mechanism, it is quite reasonable that VPOA-6 may enhance the production or accumulation of reactive oxygen species (ROS) in cancer cells leading to oxidative stress and cell death. To test this hypothesis, the levels of total cellular ROS (H2O2) were measured using flow cytometry. […] To assess the functional importance of ROS induction in the VPOA-6-treated KB-3-1 cells, cells were co-treated with both VPOA-6 (5 and 10 μM) and a ROS scavenger N-acetyl-L-cysteine (NAC, 3 mM).

KB-CP.5 cancer cell = assay: ROS in drug-resistant KB-CP.5 cells; assay type: cell-based, human
[9] = Catalysis of glutathione oxidation monitored by 1H NMR; assay type: biochemical
Procedure: GSH (10 mM) in deuterated PBS (1×, pH 7.4) solution at 37° C. in a cell culture incubator. The arrow on the top spectrum indicates the chemical shift of a dominant peak (absent here) in the oxidation product (GSSG).
Vanadium-containing compounds have extensive redox properties and consequently catalyze several organic substrate oxidations via free radical mechanisms. VPOA-6 is a highly efficient catalyst for oxidizing glutathione (GSH), the primary intracellular antioxidant, through both aerobic oxidation and peroxidation under physiologically relevant conditions. Glutathione is the most abundant cellular reducing metabolite with concentrations in the millimolar range and is regarded as the primary mechanism for protecting cells against oxidative stress during proliferation and growth. In order to evaluate the inherent catalytic capability of VPOA-6, proton nuclear magnetic resonance (1H NMR) spectroscopy was used to monitor the in vitro oxidation of GSH. Two reactions were designed for this purpose, GSH reacting with air (O2) and, separately, GSH reacting with peroxide (H2O2) in PBS buffer (1×pH 7.4) at 37° C.

[10] = Catalysis of ascorbic acid oxidation; assay type: biochemical; settings: air or peroxide, physiological conditions
[11] = tested on: KB-3-1 human cervical carcinoma; assay: KB-3-1 xenograft mouse model, antitumor efficacy; assay type: in vivo, mice; settings: for tumor inhibition effect: 16 μmol/kg i.p.
Source text: In vivo antitumor effect of VPOA-6. Inhibition of human head-and-neck KB-3-1 tumor growth by VPOA-6 treatment in tumor-bearing mice. […] Mice were then euthanized, vital organs collected and processed for histological examination.
Human cervical cancer is one of the most aggressive forms of human cancer. […] Specifically when using i.p. administration, the tumor volume of VPOA-6-treated group at a dose of 40 μmol/kg was less than 40% of that control group at the end point. […] Evaluation of VPOA-6 side effects. A central issue in developing new chemotherapeutics is to minimize the side effects associated with the non-specific interaction of the drugs with normal organ tissues.

[12] = Side effects in treated tumor-bearing mice; assay type: in vivo
Source text: Mice were then euthanized, vital organs collected and processed for histological examination.

cancer cells [13] = assay: Uptake into living cells by fluorescent labeling; assay type: cell-based; settings: 1 μM
Procedure: (§4) One aspect of selectivity is the efficacy ratio of a therapeutic agent for normal cells versus cancer cells. In sharp contrast to cancer cells, human embryonic kidney HEK 293, human lung MRC-5, and human bronchus BEAS-2B normal cells are viable at VPOA-6 concentrations up to 20 μM. […] A fluorescent-labeling technique successfully images the uptake of VPOA-6 into living cells showing that cancer cells readily internalize this nanodrug within 8 hr even at very low concentrations (1 μM).

cancer cells [14] = assay: TUNEL and Annexin V-PE staining assays; assay type: cell-based; settings: normal proliferating cells remain alive
Procedure: as §4

[15] = pH 7.4
cancer cells [16] = tested on: cancer cells

## [V6O13{(OCH2)3CNO2}2] [VPOA-NO2]
KB-3-1 cancer cell line
  IC50: 13.7 ± 0.15 µM

## [O]=[V](=[O])[O][V](=[O])=[O] [V2O5]
[1]
  activity and selectivity, KB-3-1 versus normal cells: active but nonselective

## [V6O13{(OCH2)3CNH3}2] [VPOA-6]
KB-3-1 cancer cell line
  IC50: 3.45 µM and < 5 µM
[2]
  IC50: 3.7 µM
[3]; KB-CP.5 cells, 72 h
  IC50: 5.53 µM
[4]
  IC50: 7.36 ± 0.54 µM
[5]
  IC50: 8.69 ± 0.91 µM
[6]
  IC50: 3.12 ± 0.05 µM
[7]
  IC50: 10.8 ± 0.49 µM
[8]
  toxicity in cell viability studies: much less so
[1]; 0-20 μM, 72 h
  selective killing: cytotoxicity in cancer versus normal proliferating cells: no cytotoxicity in normal proliferating cells; also recorded: induces cell death in cancer cells (Tumor) but not in normal proliferating cells (Normal)
KB-3-1 cancer cells; KB-3-1, 48 hr
  apoptosis: Dose-dependent apoptosis
KB-CP.5 cancer cells; KB-CP.5
  apoptosis: remarkable apoptosis
KB-3-1 cells; KB-3-1, 5 and 10 μM, versus non-treated cells
  ROS levels: significant surge in ROS levels
KB-CP.5 cancer cell
  ROS levels: dramatic ROS increase
[9]; H2O2, PBS pH 7.4, 37° C., after 30 minutes
  product of GSH oxidation: over-oxidized product, GS(═O)SG
[9]; air, GSH 10 mM, PBS pH 7.4, 37° C.
  time for conversion of GSH to GSSG: ≤ 30 min
[10]
  catalysis of ascorbic acid oxidation: efficiently catalyzes ascorbic acid oxidation
[11]; weekly for 24 days
  tumor inhibition effect: clearly demonstrated the antitumor effect
[11]; 40 μmol/kg i.p., weekly for 24 days
  tumor volume relative to control group at the end point: less than 40%
[11]; i.p. or i.v., KB-3-1 xenografted mice
  tumor growth inhibition, overall: significantly inhibits growth; also recorded: quite effective
[11]; i.v. administration
  tumor inhibition: more significant tumor inhibition
[12]; mouse, in vivo
  nephrotoxicity: not observed
Cancer cells [13]
  time to internalization by cancer cells: ≤ 8 h
Cancer cells [14]
  apoptosis by TUNEL and Annexin V-PE staining: dramatic apoptosis of the cancer cells
[15]
  stability: stable
Normal cells
  ROS and apoptosis in normal cells: ROS increase but did not show obvious apoptosis

## [V6O13{(OCH2)3CCH3}2] [VPOA-CH3]
KB-3-1 cancer cell line
  IC50: 16.21 ± 0.08 µM

## OO [hydrogen peroxide]
Cancer cells [16]
  interaction with VPOA-6 in killing cancer cells: acted synergistically with VPOA-6

## CC(=O)N[C@@H](CS)C(=O)O [NAC, N-acetyl-L-cysteine, reference compound]
KB-3-1 cancer cells; KB-3-1, VPOA-6 5 or 10 μM, NAC 3 mM, 48 hr
  effect of NAC on VPOA-6-induced apoptosis: rescues
KB-CP.5 cancer cells; KB-CP.5, VPOA-6 5 or 10 μM, NAC 3 mM, 48 hr
  effect of NAC on VPOA-6-induced apoptosis: rescues
KB-3-1 cells; KB-3-1, VPOA-6 5 and 10 μM, NAC 3 mM
  effect of NAC on ROS and cell killing by VPOA-6: reduces ROS and the cell killing by VPOA-6

## CCCC[N+](CCCC)(CCCC)CCCC [TBA Cl, reference compound]
KB-3-1 cancer cell line
  IC50: 289 ± 12 µM

## [V6O13{(OCH2)3CCH2OH}2] [VPOA-OH]
KB-3-1 cancer cell line
  IC50: 21 ± 1.47 µM

## [Na+].[Na+].[Na+].[O]=[V]([O-])([O-])[O-] [Na3VO4]
[1]
  activity and selectivity, KB-3-1 versus normal cells: active but nonselective

## [Na+].[O]=[V](=[O])[O-] [NaVO3]
[1]
  activity and selectivity, KB-3-1 versus normal cells: active but nonselective

## N.N.[Cl][Pt][Cl] [cisplatin, reference compound]
KB-3-1 cancer cell line
  IC50: 2.8 µM
[3]; KB-CP.5 versus KB-3-1
  resistance of KB-CP.5 compared to parental KB-3-1: ca. 40 fold
[6]
  IC50: 4.4 µM
[11]; weekly for 24 days
  tumor inhibition effect: did not exhibit any tumor inhibition effect
[12]; increased dosages
  mortality: widespread death
[12]; treatment period
  health and body weight of treated mice: deteriorated health and severe body weight loss
